Measurements taken from PubChem BioAssay AID2060902 (Molecular Pharmacology Branch, DTP, NCI, 2025).

Tested on: 485368-065-R3-J5-PDC spheroids with HUVEC/MSC, viability
Experiment: Anticancer human tumor 485368-065-R3-J5-PDC patient-derived pancreatic carcinoma cell line growth inhibition [RAS]
Conditions: for viability, T/C: stronger effect = lower value
Text: RAS pathway inhibitors in Combinations in Complex Spheroids
A high-throughput screen of multi-cell type tumor spheroids was designed to identify active combinations of RAS pathway inhibitors and targeted small molecules. Complex spheroids include a stromal component modeled by human endothelial cells (HUVEC) and fibroblasts modeled by human mesenchymal stem cells (MSCs). The concentration ranges selected for each drug and investigational agent were based upon clinically achievable concentrations if the clinical Cmax of the agent was known.
Compounds. The drugs and investigational agents: abemaciclib (NSC768073), cobimetinib (NSC768068), divarasib (GDC6063, NSC841802), docetaxel (NSC628503), GDC-1971 (RLY-1971, NSC841576), gemcitabine (NSC613327), inavolisib (NSC800729), ipatasertib (NSC767898), KB-0742 (NSC834161), MRTX-1133 (NSC836407), osimertinib (NSC779217), RMC-4630 (NSC839698), RMC-6236 (NSC851965), RMC-6291 (NSC852671), Ro-3306 (NSC812927), sapanisertib (NSC764658), SN-38 (NSC673596), staurosporine (NSC755774), SY5609 (NSC837396), and tovorafenib (DAY101, NSC766906), were obtained from the National Cancer Institute (NCI) Developmental Therapeutics Program Chemical Repository. The FDA-approved anticancer drug set is available from the NCI Developmental Therapeutics Program. […] The stock solutions were prepared in dimethyl sulfoxide (DMSO, Sigma-Aldrich, St. Louis, MO, cat. D2650) at 800-fold the tested concentration and stored at -70 degrees C prior to their use. All drugs and investigational agents were tested over a range starting from a high concentration at or near the clinical Cmax and decreasing in half-log increments. If the clinical Cmax for an agent had not been determined, the highest concentration tested was 10 microM.
Cell Culture. All cells were maintained in an incubator at 37 degrees C and 5% CO2 with 95% humidity. The PDC lines were cultured according to standard operating procedures established by the NCI PDMR. All PDCs were thawed and cultured in Matrigel-coated flasks prepared with a working solution of 1X Ham's F-12 nutrient mix, without supplementation (Invitrogen, Waltham, MA, cat. 11765054), 100 U/mL penicillin-streptomycin (Invitrogen, cat. 15140122), and 2.5% Matrigel (Corning Inc., Corning, NY, cat. 354248) for the first three passages. The 362531-283-R-J2-PDC and 782815-120-R-J1-PDC lines were cultured in 6C/Colon 1B media, which includes advanced DMEM/F-12 (Thermo Fisher Scientific, cat. 12634028), 10 mM HEPES (Thermo Fisher Scientific, cat. 15630080), 1X GlutaMAX supplement (Thermo Fisher Scientific, cat. 35050061), 0.1 mg/mL primocin (InvivoGen, San Diego, CA, cat. ant-pm-2), 10% defined fetal bovine serum, heat inactivated (HyClone Laboratories Inc., Logan, UT, cat. SH30070.03HI), 50% L-WRN conditioned media (ATCC, cat. CRL-3276), 1.25 mM N-Acetyl-L-cysteine (Sigma-Aldrich, cat. A9165), 10 mM nicotinamide (Sigma-Aldrich, cat. N0636), 1X B-27 supplement (Thermo Fisher Scientific, cat. 17504044), 1X N-2 supplement (Thermo Fisher Scientific, cat. 17502048), 50 ng/mL human EGF (Thermo Fisher Scientific, cat. PHG0311), and 10 microM Y-27632 dihydrochloride (Tocris Bioscience, cat. 1254). The K12877-001-R-J1-PDC line was cultured in 6I media, which includes all 6C/Colon 1B media plus 10 ng/mL human FGF-10 (PeproTech, cat. 100-26), 1 ng/mL human FGF-2 (PeproTech, cat. 100-18B), 1 µM prostaglandin E2 (Tocris Bioscience, cat. 2296), […] hydrocortisone (Sigma-Aldrich, cat. H4001), and […] bovine insulin (Sigma-Aldrich, cat. I6634). The K86415-001-R-J1-PDC line was cultured in 6D media, which includes all 6C/Colon 1B media components minus the L-WRN conditioned media. The 485176-168-R4-J1-PDC was cultured in PANC media, which includes all 6C/Colon 1B media plus 100 ng/mL human FGF-10 (PeproTech, cat. 100-26), 500 nM SB-431542 (Selleckchem, cat. S1067), and 10 nM gastrin (Tocris Bioscience, cat. 3006). […]
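Further: spheroids exposed to agents for seven days before readout.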

With `CC(Nc1ccc2c(c1)OCCn1cc(N3C(=O)OCC3C(F)F)nc1-2)C(N)=O` (configuration not stated) + CCn1c(-c2cc(N3CCN(C)CC3)cnc2C(C)OC)c2c3cc(ccc31)-c1csc(n1)CC(NC(=O)C1CC1C)C(=O)N1CCCC(N1)C(=O)OCC(C)(C)C2 the IC50 (curve of first compound, second compound 0.000949 µM) was under 31.6 nM, the IC50 (curve of first compound, second compound 0.003 µM) was under 31.6 nM and the IC50 (curve of first compound, second compound 0.00949 µM) was under 31.6 nM. It also gave an IC50 (curve of first compound, second compound 0.03 µM) of under 31.6 nM, an IC50 (curve of first compound, second compound 0.0949 µM) of under 31.6 nM and an IC50 (curve of first compound, second compound 0.3 µM) of under 31.6 nM. The viability, T/C (second compound 0.000949 µM, first compound 0.0316 µM) was 26.2%, the viability, T/C (second compound 0.000949 µM, first compound 0.1 µM) was 23.7% and the viability, T/C (second compound 0.000949 µM, first compound 0.316 µM) was 24.2%. For the same molecule, the viability, T/C (second compound 0.000949 µM, first compound 1 µM) was 18.2%, the viability, T/C (second compound 0.000949 µM, first compound 3.16 µM) was 17.5% and the viability, T/C (second compound 0.000949 µM, first compound 10 µM) was 11.3%. It also gave a viability, T/C (second compound 0.003 µM, first compound 0.0316 µM) of 15%, a viability, T/C (second compound 0.003 µM, first compound 0.1 µM) of 13.3% and a viability, T/C (second compound 0.003 µM, first compound 0.316 µM) of 12.6%. For the same molecule, the viability, T/C (second compound 0.003 µM, first compound 1 µM) was 11.2%, the viability, T/C (second compound 0.003 µM, first compound 3.16 µM) was 10.1% and the viability, T/C (second compound 0.003 µM, first compound 10 µM) was 7.35%. It also gave a viability, T/C (second compound 0.00949 µM, first compound 0.0316 µM) of 10.8%, a viability, T/C (second compound 0.00949 µM, first compound 0.1 µM) of 11.4% and a viability, T/C (second compound 0.00949 µM, first compound 0.316 µM) of 9.57%. The viability, T/C (second compound 0.00949 µM, first compound 1 µM) was 9.69%, the viability, T/C (second compound 0.00949 µM, first compound 3.16 µM) was 9.37% and the viability, T/C (second compound 0.00949 µM, first compound 10 µM) was 6.07%. It also gave a viability, T/C (second compound 0.03 µM, first compound 0.0316 µM) of 10.3%, a viability, T/C (second compound 0.03 µM, first compound 0.1 µM) of 9.36% and a viability, T/C (second compound 0.03 µM, first compound 0.316 µM) of 8.76%. The viability, T/C (second compound 0.03 µM, first compound 1 µM) was 8.73%, the viability, T/C (second compound 0.03 µM, first compound 3.16 µM) was 7.08% and the viability, T/C (second compound 0.03 µM, first compound 10 µM) was 4.24%. For the same molecule, the viability, T/C (second compound 0.0949 µM, first compound 0.0316 µM) was 7.86%, the viability, T/C (second compound 0.0949 µM, first compound 0.1 µM) was 6.77% and the viability, T/C (second compound 0.0949 µM, first compound 0.316 µM) was 7.07%. It also gave a viability, T/C (second compound 0.0949 µM, first compound 1 µM) of 5.28%, a viability, T/C (second compound 0.0949 µM, first compound 3.16 µM) of 4.78% and a viability, T/C (second compound 0.0949 µM, first compound 10 µM) of 2.97%. For the same molecule, the viability, T/C (second compound 0.3 µM, first compound 0.0316 µM) was 6.57%, the viability, T/C (second compound 0.3 µM, first compound 0.1 µM) was 6.98% and the viability, T/C (second compound 0.3 µM, first compound 0.316 µM) was 5.66%. For the same molecule, the viability, T/C (second compound 0.3 µM, first compound 1 µM) was 4.05%, the viability, T/C (second compound 0.3 µM, first compound 3.16 µM) was 4.16% and the viability, T/C (second compound 0.3 µM, first compound 10 µM) was 2.04%.

`C=CC(=O)N1CCN(c2nc(OCC3CCCN3C)nc3c(F)c(-c4nc(N)cc(C)c4C(F)(F)F)c(Cl)cc23)C(C)C1` (configuration not stated) was tested, and the viability, T/C (compound 0.00316 µM) was 106% [middle of 12 runs], the viability, T/C (compound 0.01 µM, compound 0.0316 µM) was 101% and the viability, T/C (compound 0.01 µM, compound 0.1 µM) was 98.5%. For the same molecule, the viability, T/C (compound 0.01 µM, compound 0.316 µM) was 111%, the viability, T/C (compound 0.01 µM, compound 1 µM) was 97% and the viability, T/C (compound 0.01 µM) was 104% [middle of 12 runs]. For the same molecule, the viability, T/C (compound 0.0316 µM, compound 0.00316 µM) was 102%, the viability, T/C (compound 0.0316 µM, compound 0.01 µM) was 110% and the viability, T/C (compound 0.0316 µM, compound 0.1 µM) was 107%. The viability, T/C (compound 0.0316 µM, compound 0.316 µM) was 107%, the viability, T/C (compound 0.0316 µM, compound 1 µM) was 113% and the viability, T/C (compound 0.0316 µM) was 106% [middle of 13 runs]. It also gave a viability, T/C (compound 0.1 µM, compound 0.00316 µM) of 116%, a viability, T/C (compound 0.1 µM, compound 0.01 µM) of 112% and a viability, T/C (compound 0.1 µM, compound 0.0316 µM) of 99.1%. The viability, T/C (compound 0.1 µM, compound 0.316 µM) was 107%, the viability, T/C (compound 0.1 µM, compound 1 µM) was 94% and the viability, T/C (compound 0.1 µM) was 101% [middle of 13 runs]. For the same molecule, the viability, T/C (compound 0.316 µM, compound 0.00316 µM) was 103%, the viability, T/C (compound 0.316 µM, compound 0.01 µM) was 104% and the viability, T/C (compound 0.316 µM, compound 0.0316 µM) was 102%. The viability, T/C (compound 0.316 µM, compound 0.1 µM) was 108%, the viability, T/C (compound 0.316 µM, compound 1 µM) was 100% and the viability, T/C (compound 0.316 µM) was 106% [middle of 13 runs]. For the same molecule, the viability, T/C (compound 1 µM, compound 0.00316 µM) was 112%, the viability, T/C (compound 1 µM, compound 0.01 µM) was 106% and the viability, T/C (compound 1 µM, compound 0.0316 µM) was 108%. The viability, T/C (compound 1 µM, compound 0.1 µM) was 101%, the viability, T/C (compound 1 µM, compound 0.316 µM) was 96.7% and the viability, T/C (compound 1 µM) was 101% [middle of 13 runs]. For the same molecule, the IC50 (compound alone, run of 07/15/2024) was over 1000 nM and the IC50 (curve of compound) was over 1000 nM.

In the case of `CC1(C)CCC(Nc2ncc(C(F)(F)F)c(-c3c[nH]c4c(P(C)(C)=O)c(C#N)ccc34)n2)CN1` (configuration not stated), the viability, T/C (compound 0.03 µM) is reported as 41.7% [middle of 4 runs], the viability, T/C (compound 0.0949 µM) is reported as 38.6% [middle of 4 runs] and the viability, T/C (compound 0.3 µM) is reported as 39.7% [middle of 4 runs].
